Data reported in patent US20230234967A1, “Fused Azole Heterocycles as AHR Antagonists” (Senda Biosciences, Inc., priority 2021, published 2023).

target: T1, AHR (Homo sapiens, UniProt P35869); test: DRE-Luciferase Reporter Assay (HepG2 AhR-Lucia reporter cells); type: cell-based; conditions: AHR activating ligand at its EC50, luciferase read-out, read-out: HEPG2 Luc IC50
T1 construct: other cell line with a DRE-luciferase reporter stably transfected; endogenous in cells; host or cells: Human HepG2 liver carcinoma AhR-Lucia reporter cells
T1 sequence (P35869 11-848): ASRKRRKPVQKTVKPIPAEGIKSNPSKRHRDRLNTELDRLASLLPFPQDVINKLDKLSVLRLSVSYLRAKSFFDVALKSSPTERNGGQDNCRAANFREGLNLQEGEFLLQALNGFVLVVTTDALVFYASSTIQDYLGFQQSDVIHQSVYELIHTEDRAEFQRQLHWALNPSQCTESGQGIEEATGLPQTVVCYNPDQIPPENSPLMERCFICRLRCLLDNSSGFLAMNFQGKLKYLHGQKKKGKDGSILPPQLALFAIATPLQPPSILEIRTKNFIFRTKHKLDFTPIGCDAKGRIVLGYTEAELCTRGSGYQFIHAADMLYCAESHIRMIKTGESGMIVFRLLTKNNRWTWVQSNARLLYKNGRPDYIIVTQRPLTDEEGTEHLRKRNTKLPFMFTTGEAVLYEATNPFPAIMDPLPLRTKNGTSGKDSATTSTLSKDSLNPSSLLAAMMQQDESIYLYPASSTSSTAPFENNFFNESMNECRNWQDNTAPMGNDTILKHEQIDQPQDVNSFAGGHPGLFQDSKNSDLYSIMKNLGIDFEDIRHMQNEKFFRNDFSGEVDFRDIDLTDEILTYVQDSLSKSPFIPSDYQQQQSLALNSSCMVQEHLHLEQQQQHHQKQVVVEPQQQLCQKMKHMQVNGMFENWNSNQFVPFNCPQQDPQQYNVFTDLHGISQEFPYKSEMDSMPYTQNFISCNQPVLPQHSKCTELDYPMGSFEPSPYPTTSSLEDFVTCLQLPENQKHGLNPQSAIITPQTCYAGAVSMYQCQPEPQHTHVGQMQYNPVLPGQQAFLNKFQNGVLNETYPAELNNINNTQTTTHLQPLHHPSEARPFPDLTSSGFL
Text: Example 27: DRE-Luciferase Reporter Assay
AHR binds to Dioxin Responsive Elements (DRE) upstream of genes that it activates. One measure of AHR activity is activation of a reporter gene, such as luciferase, downstream of one or multiple DRE elements. Luciferase activity will reflect activation and inhibition of AHR in the cells expressing his reporter. 20000 Human HepG2 liver carcinoma—AhR-Lucia reporter cells or Human HT29 colon adenocarcinoma—AhR reporter cells or other cell line with a DRE-luciferase reporter stably transfected were plated in Eagle's Minimal Essential Medium, 10% heat-inactivated FBS, 1×non-essential amino acids Pen-Strep (10,000 U/mL) and Normocin (100 ug/mL) in plates (96-well, 384-well or other plates) and incubated overnight at 37° C. in a CO2 incubator and treated with and without AhR antagonists at a log dilution starting at 100 uM.
After 1 hr that cells were plated an AHR activating ligand, such as TCDD, kynurenine, ITE (2-(1H-indole-3-ylcarbonyl)-4-thiazolecarboxylic methyl ester), VAF347, BNF (beta-naphthoflavone), FICZ (6-formylindolo(3,2-b) carbazole) or other AHR ligands at their specific EC50 concentration, were added to the cells with or without AHR antagonist.
Cells were incubated for 24 or 48 hours or another time point and then, supernatant was analyzed for determination of luciferase activity as a read-out of the AHR activation or inhibition. Luciferase was measured with the commercial kit QUANTI-Luc™ assay solution kit from Invivogen following the manufacturer's instructions.
The level of luciferase with only agonist ligand added was the maximum signal while the luciferase with […] was the minimum signal. IC50 values were determined as the concentration which inhibits half of the luciferase activity. “A” indicates an IC50 value less than 100 nM, “B” indicates an IC50 between 100 and 500 nM, “C” indicates an IC50 above 500 nM.

Compound	IC50
COc1ccccc1-c1ccc2nc(NC(=O)c3ccncc3)sc2n1 [Product 14, N-(5-(2-methoxyphenyl)thiazolo[5,4-b]pyridin-2-yl)isonicotinamide]	< 100 nM
CN(C)c1cccc(-c2ccc3nc(NC(=O)c4ccnn4C)sc3n2)c1 [Product 19, N-(5-(3-(dimethylamino)phenyl)thiazolo[5,4-b]pyridin-2-yl)-1-methyl-1H-pyrazole-5-carboxamide]	> 500 nM
COc1ccccc1-c1ccc2nc(NC(=O)c3cccnc3)sc2n1 [Product 13, N-(5-(2-methoxyphenyl)thiazolo[5,4-b]pyridin-2-yl)nicotinamide]	100 to 500 nM
Cn1nccc1C(=O)Nc1nc2ccc(-c3nccs3)nc2s1 [Product 28, 1-Methyl-N-(5-(thiazol-2-yl)thiazolo[5,4-b]pyridin-2-yl)-1H-pyrazole-5-carboxamide]	> 500 nM
Cn1cc(-c2ccc3nc(NC(=O)c4ccnn4C)sc3n2)cn1 [Product 22, 1-Methyl-N-(5-(1-methyl-1H-pyrazol-4-yl)thiazolo[5,4-b]pyridin-2-yl)-1H-pyrazole-5-carboxamide]	100 to 500 nM
Cc1csc(-c2ccc3nc(NC(=O)c4ccnn4C)sc3n2)n1 [Product 32, 1-Methyl-N-(5-(4-methylthiazol-2-yl)thiazolo[5,4-b]pyridin-2-yl)-1H-pyrazole-5-carboxamide]	> 500 nM
Cc1ccccc1-c1cc2cnc(NC(=O)c3ccnn3C)nc2[nH]1 [Product 48]	100 to 500 nM
Cn1nccc1C(=O)Nc1nc2ccc(-c3cc(F)ccc3C(F)F)nc2s1 [Product 5, N-(5-(2-(difluoromethyl)-5-fluorophenyl)thiazolo[5,4-b]pyridin-2-yl)-1-methyl-1H-pyrazole-5-carboxamide]	> 500 nM
CN(C)c1ccc(-c2ccc3nc(NC(=O)c4ccnn4C)sc3n2)cc1 [Product 20, N-(5-(4-(dimethylamino)phenyl)thiazolo[5,4-b]pyridin-2-yl)-1-methyl-1H-pyrazole-5-carboxamide]	< 100 nM
Cc1nc(-c2ccc3nc(NC(=O)c4ccnn4C)sc3n2)sc1C [Product 29, N-(5-(4,5-dimethylthiazol-2-yl)thiazolo[5,4-b]pyridin-2-yl)-1-methyl-1H-pyrazole-5-carboxamide]	100 to 500 nM
Cc1nc(C)c(-c2ccc3nc(NC(=O)c4ccnn4C)sc3n2)s1 [Product 33, N-(5-(2,4-dimethylthiazol-5-yl)thiazolo[5,4-b]pyridin-2-yl)-1-methyl-1H-pyrazole-5-carboxamide]	100 to 500 nM
CN(C)C(=O)c1cccc(-c2ccc3nc(NC(=O)c4ccnn4C)sc3n2)c1 [Product 17, N-(5-(3-(dimethylcarbamoyl)phenyl)thiazolo[5,4-b]pyridin-2-yl)-1-methyl-1H-pyrazole-5-carboxamide]	> 500 nM
Cc1ccccc1-c1cc2ncc(NC(=O)c3ccnn3C)nc2[nH]1 [Product 50, 1-methyl-N-(6-(o-tolyl)-5H-pyrrolo[2,3-b]pyrazin-3-yl)-1H-pyrazole-5-carboxamide]	> 500 nM
Cn1nccc1C(=O)Nc1cnc2cc(-c3ccccc3C(F)(F)F)[nH]c2c1 [Product 44, 1-methyl-N-(2-(2-(trifluoromethyl)phenyl)-1H-pyrrolo[3,2-b]pyridin-6-yl)-1H-pyrazole-5-carboxamide]	100 to 500 nM

Now from value to compound:

IC50	Compound
100 to 500 nM	Cn1nccc1C(=O)Nc1nc2ccc(-c3cccnc3)nc2s1 [Product 26, 1-Methyl-N-(5-(pyridin-3-yl)thiazolo[5,4-b]pyridin-2-yl)-1H-pyrazole-5-carboxamide]
100 to 500 nM	Cc1ccccc1-c1cc2ncc(NC(=O)c3ncnn3C)cc2[nH]1 [Product 46]
100 to 500 nM	Cc1cnc(-c2ccc3nc(NC(=O)c4ccnn4C)sc3n2)s1 [Product 30, 1-Methyl-N-(5-(5-methylthiazol-2-yl)thiazolo[5,4-b]pyridin-2-yl)-1H-pyrazole-5-carboxamide]
100 to 500 nM	Cc1ncsc1-c1ccc2nc(NC(=O)c3ccnn3C)sc2n1 [Product 31, 1-Methyl-N-(5-(4-methylthiazol-5-yl)thiazolo[5,4-b]pyridin-2-yl)-1H-pyrazole-5-carboxamide]
100 to 500 nM	CN(CCO)c1ccccc1-c1ccc2nc(NC(=O)c3ccnn3C)sc2n1 [Product 37, N-(5-(2-((2-hydroxyethyl)(methyl)amino)phenyl)thiazolo[5,4-b]pyridin-2-yl)-1-methyl-1H-pyrazole-5-carboxamide]
100 to 500 nM	COc1ccccc1-c1ccc2nc(NC(=O)c3ncnn3C)sc2n1 [Product 4, N-(5-(2-methoxyphenyl)thiazolo[5,4-b]pyridin-2-yl)-1-methyl-1H-1,2,4-triazole-5-carboxamide]
100 to 500 nM	Cc1ccccc1-c1ccc2nc(NC(=O)c3ncnn3C)sc2n1 [Product 2, 1-Methyl-N-(5-(o-tolyl)thiazolo[5,4-b]pyridin-2-yl)-1H-1,2,4-triazole-5-carboxamide]
> 500 nM	Cc1ccccc1-c1ccc2nc(NC(=O)c3cccnc3)sc2n1 [Product 9, N-(5-(o-tolyl)thiazolo[5,4-b]pyridin-2-yl)nicotinamide]
> 500 nM	CC(C)C(=O)Nc1ccccc1-c1ccc2nc(NC(=O)c3ccnn3C)sc2n1 [Product 34, N-(5-(2-isobutyramidophenyl)thiazolo[5,4-b]pyridin-2-yl)-1-methyl-1H-pyrazole-5-carboxamide]
> 500 nM	CC(=O)Nc1ccccc1-c1ccc2nc(NC(=O)c3ccnn3C)sc2n1 [Product 35, N-(5-(2-acetamidophenyl)thiazolo[5,4-b]pyridin-2-yl)-1-methyl-1H-pyrazole-5-carboxamide]
> 500 nM	Cc1ccccc1-c1ccc2sc(NC(=O)c3ccnn3C)nc2n1 [Product 41, 1-methyl-N-(5-(o-tolyl)thiazolo[4,5-b]pyridin-2-yl)-1H-pyrazole-5-carboxamide]
> 500 nM	Cc1ccccc1-c1ccc2nc(NC(=O)c3ccncc3)sc2n1 [Product 10, N-(5-(o-tolyl)thiazolo[5,4-b]pyridin-2-yl)isonicotinamide]
100 to 500 nM	Cn1nccc1C(=O)Nc1nc2ccc(-c3ccccc3C(F)F)nc2s1 [Product 3, N-(5-(2-(difluoromethyl)phenyl)thiazolo[5,4-b]pyridin-2-yl)-1-methyl-1H-pyrazole-5-carboxamide]
> 500 nM	Cc1ccccc1-c1ccc2nc(NC(=O)c3ccnn3C)oc2n1 [Product 43, 1-methyl-N-(5-(o-tolyl)oxazolo[5,4-b]pyridin-2-yl)-1H-pyrazole-5-carboxamide]
> 500 nM	Cc1ccccc1-c1cc2sc(NC(=O)c3ccnn3C)nc2cn1 [Product 42, 1-methyl-N-(6-(o-tolyl)thiazolo[4,5-c]pyridin-2-yl)-1H-pyrazole-5-carboxamide]
> 500 nM	Cn1ncnc1C(=O)Nc1nc2ccc(-c3ccccc3C(F)(F)F)nc2s1 [Product 6, 1-Methyl-N-(5-(2-(trifluoromethyl)phenyl)thiazolo[5,4-b]pyridin-2-yl)-1H-1,2,4-triazole-5-carboxamide]
> 500 nM	CC(=O)N(C)c1ccccc1-c1ccc2nc(NC(=O)c3ccnn3C)sc2n1 [Product 36, 1-methyl-N-(5-(2-(N-methylacetamido)phenyl)thiazolo[5,4-b]pyridin-2-yl)-1H-pyrazole-5-carboxamide]
> 500 nM	Cn1ncnc1C(=O)Nc1nc2ccc(-c3ccccc3C(F)F)nc2s1 [Product 7, N-(5-(2-(difluoromethyl)phenyl)thiazolo[5,4-b]pyridin-2-yl)-1-methyl-1H-1,2,4-triazole-5-carboxamide]
